Measurements taken from US7022716B2, “Cyclic amine phenyl beta-3 adrenergic receptor agonists” (Wyeth, priority 2000, dated 2006).
Where a name gives a salt, the structure may show the parent alone.

Test system: not given
Test: not given
Details: not given

melting point	SMILES
182 °C (dec.)	Cl.Nc1ccc([C@H](O)CNC2CCN(c3ccc(CC4SC(=O)NC4=O)cc3)CC2)cn1 (stereo partly shown)
> 200 °C (dec.)	CS(=O)(=O)Nc1cc(C(O)CNC2CCN(c3ccc(C=C4SC(=O)NC4=O)cc3)CC2)ccc1O (stereo not shown)
57 to 59 °C	CS(=O)(=O)Nc1ccc(C(O)CNC2CCN(c3ccc(CC4SC(=O)NC4=O)cc3)CC2)cn1 (stereo not shown) (as salt: salt) [Example 138, N-[5-(2-{1-[4-(2,4-Dioxo-thiazolidin-5-ylmethyl)-phenyl]-piperidin-4-ylamino}-1-hydroxy-ethyl)-pyridin-2-yl]-methanesulfonamide]
> 85 °C (dec.)	CS(=O)(=O)Nc1cc([C@@H](O)CNC2CCN(c3ccc(C(=O)NCC(=O)O)cc3)CC2)ccc1O (as salt: sodium) [Example 197, [(4-{4-[((2R)-2-Hydroxy-2-{4-hydroxy-3-[(methylsulfonyl)amino]phenyl}ethyl)amino]-1-piperidinyl}benzoyl)amino]acetic acid]
> 177 °C (dec.)	CC(C)C[C@H](NC(=O)c1ccc(N2CCC(NC[C@H](O)c3ccc(O)c(NS(C)(=O)=O)c3)CC2)cc1)C(=O)O (as salt: sodium) [Example 199, (2S)-2-(4-{4-[(2R)-2-Hydroxy-2-(4-hydroxy-3-methanesulfonylamino-phenyl)-ethylamino]-piperidin-1-yl}-benzoylamino)-4-methyl-pentanoic acid]
> 220 °C (dec.)	CS(=O)(=O)Nc1cc([C@@H](O)CNC2CCN(c3ccc(C(=O)N4CCC[C@H]4C(=O)O)cc3)CC2)ccc1O (as salt: sodium) [Example 201, 1-(4-{4-[(2R)-2-Hydroxy-2-(4-hydroxy-3-methanesulfonylamino-phenyl)-ethylamino]-piperidin-1-yl}-benzoyl)-pyrrolidine-(2S)-2-carboxylic acid]
> 135 °C (dec.)	CC(C)[C@H](NC(=O)c1ccc(N2CCC(NC[C@H](O)c3ccc(O)c(NS(C)(=O)=O)c3)CC2)cc1)C(=O)O (as salt: sodium) [Example 203, (2S)-2-(4-{4-[(2R)-2-Hydroxy-2-(4-hydroxy-3-methanesulfonylamino-phenyl)-ethylamino]-piperidin-1-yl}-benzoylamino)-3-methyl-butyric acid]
> 160 °C (dec.)	CS(=O)(=O)Nc1cc([C@@H](O)CNC2CCN(c3ccc(C(=O)N[C@@H](Cc4ccccc4)C(=O)O)cc3)CC2)ccc1O (as salt: sodium) [Example 205, (2S)-2-(4-{4-[(2R)-2-Hydroxy-2-(4-hydroxy-3-methanesulfonylamino-phenyl)-ethylamino]-piperidin-1-yl}-benzoylamino)-3-phenyl-propionic acid]
> 150 °C (dec.)	CS(=O)(=O)Nc1cc(C(O)CNC2CCN(c3ccc(CC4SC(=O)NC4=O)cc3)CC2)ccc1O (stereo not shown) [Example 78]
> 175 °C (dec.)	CC(C)S(=O)(=O)Nc1cc([C@@H](O)CNC2CCN(c3ccc(CC4SC(=O)NC4=O)cc3)CC2)ccc1O (stereo partly drawn) [Example 94, (R)-Propane-2-sulfonic acid [5-(2-{1-[4-(2,4-dioxo-thiazolidin-5-ylmethyl)-phenyl]-piperidin-4-ylamino}-1-hydroxy-ethyl)-2-hydroxy-phenyl]-amide]
108 to 113 °C	O=C1NC(=O)C(Cc2ccc(N3CCC(NC[C@H](O)c4csc(C(F)(F)F)n4)CC3)cc2)S1 (stereo partly drawn) [Example 106, 5-{4-[4-({(2S)-2-Hydroxy-2-[2-(trifluoromethyl)-1,3-thiazol-4-yl]ethyl}amino)piperidine-1-yl]benzyl}-1,3-thiazolidine-2,4-dione]
110 °C	O=C1NC(=O)C(Cc2ccc(N3CCC(NC[C@H](O)c4cc(-c5ccc(Cl)c(Cl)c5)no4)CC3)cc2)S1 (stereo partly drawn) [Example 110, 5-{4-[4-({(2S)-2-[3-(3,4-Dichlorophenyl)isoxazol-5-yl]-2-hydroxyethyl}-amino)piperidine-1-yl}benzyl}-1,3-thiazole-2,4-dione]
87 °C (dec.)	Cc1ccc(OC[C@@H](O)CNC2CCN(c3ccc(CC4SC(=O)NC4=O)cc3)CC2)cn1 (stereo partly drawn) [Example 128, 5-(4-{4-[(2S)-2-Hydroxy-3-(6-methyl-pyridin-3-yloxy)-propylamino]-piperidin-1-yl}-benzyl)-thiazolidine-2,4-dione]

Molecular target: T1, human β3 adrenergic receptor (Homo sapiens, UniProt P13945)
T1 construct: Full length β3 AR clones (402 amino acids) containing the last 6 amino acids of hβ3-AR are prepared; expressed in transfected cells; host or cells: CHO (Chinese hamster ovary) cells
T1 sequence (P13945 whole entry): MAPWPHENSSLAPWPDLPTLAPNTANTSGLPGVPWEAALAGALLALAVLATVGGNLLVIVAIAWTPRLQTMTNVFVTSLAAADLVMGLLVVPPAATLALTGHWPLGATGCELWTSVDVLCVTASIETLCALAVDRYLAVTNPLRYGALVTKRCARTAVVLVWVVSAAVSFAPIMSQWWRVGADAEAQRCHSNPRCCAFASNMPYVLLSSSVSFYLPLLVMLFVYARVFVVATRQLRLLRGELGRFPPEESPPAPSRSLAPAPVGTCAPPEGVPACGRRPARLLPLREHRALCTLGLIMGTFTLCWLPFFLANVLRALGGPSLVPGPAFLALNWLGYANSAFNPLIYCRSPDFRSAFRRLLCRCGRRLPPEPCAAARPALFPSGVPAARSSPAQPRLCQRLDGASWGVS
Test: cAMP (SPA) response in CHO cells transfected with human β3 adrenergic receptor
Format: cell-based
Design: key: fraction of maximal isoproterenol (10^-5 M) response
Details: maximal response relative to maximal response of isoproterenol at 10^-5 M
Outline: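 Reactions were stopped with 0.2N HCl and neutralised, and cAMP was measured by SPA. Activity is expressed as percent of the maximal 10^−5 M isoproterenol response.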

IA(β3)	SMILES
0.64	O=C(CN1CCOCC1)Nc1ccc(N2CCC(NC[C@H](O)COc3cccc4[nH]c(=O)[nH]c34)CC2)cc1 [Example 383, N-{4-[4-({(2S)-2-Hydroxy-3-[(2-oxo-2,3-dihydro-1H-benzimidazol-4-yl)oxy]propyl}-amino)-1-piperidinyl]phenyl}-2-(4-morpholinyl)acetamide]
0.64	CN(C)CC(=O)Nc1ccc(N2CCC(NC[C@H](O)COc3cccc4[nH]c(=O)[nH]c34)CC2)cc1 [Example 384, 2-(Dimethylamino)-N-{4-[4-({(2S)-2-hydroxy-3-[(2-oxo-2,3-dihydro-1H-benzimidazol-4-yl)oxy]propyl}amino)-1-piperidinyl]phenyl}acetamide]
1.12	COc1ccc(C(=O)Nc2ccc(N3CCC(NCC(O)c4ccc(O)c(NS(C)(=O)=O)c4)CC3)cc2)cc1OC (stereo not shown) [Example 385, N-(4-{4-[(2-Hydroxy-2-{4-hydroxy-3-[(methylsulfonyl)amino]phenyl}ethyl)amino]-1-piperidinyl}phenyl)-3,4-dimethoxybenzamide]
0.56	COc1ccc(S(=O)(=O)Nc2ccc(N3CC(NC[C@H](O)COc4ccc(O)cc4)C3)cc2)cc1OC [Example 412, N-[4-(3-{[(2S)-2-hydroxy-3-(4-hydroxyphenoxy)propyl]amino}-1-azetidinyl)phenyl]-3,4-dimethoxybenzenesulfonamide]
0.73	CC(=O)Nc1ccc(S(=O)(=O)Nc2ccc(N3CC(NC[C@H](O)COc4ccc(O)cc4)C3)cc2)cc1 [Example 413, N-(4-{[4-(3-{[(2S)-2-Hydroxy-3-(4-hydroxyphenoxy)propyl]amino}-1-azetidinyl)anilino]-sulfonyl}phenyl)acetamide]
0.35	CC(=O)Nc1ccc(N2CC(NC[C@H](O)COc3cccc4[nH]c5ccccc5c34)C2)cc1 [Example 415, N-[4-(3-{[(2S)-3-(9H-Carbazol-4-yloxy)-2-hydroxypropyl]amino}-1-azetidinyl)phenyl]acetamide]
0.48	COc1ccc(S(=O)(=O)Nc2ccc(N3CC(NC[C@H](O)COc4cccc5[nH]c6ccccc6c45)C3)cc2)cc1OC [Example 416, N-[4-(3-{[(2S)-3-(9H-Carbazol-4-yloxy)-2-hydroxypropyl]amino}-1-azetidinyl)phenyl]-3,4-dimethoxybenzenesulfonamide]
0.71	CC(=O)Nc1ccc(S(=O)(=O)Nc2ccc(N3CC(NC[C@H](O)COc4cccc5[nH]c6ccccc6c45)C3)cc2)cc1 [Example 417, N-(4-{[4-(3-{[(2S)-3-(9H-Carbazol-4-yloxy)-2-hydroxypropyl]amino}-1-azetidinyl)anilino]sulfonyl}phenyl)acetamide]

SMILES	IA(β3)
CCCCOc1ccc(S(=O)(=O)Nc2ccc(N3CC(NC[C@H](O)COc4ccc(O)cc4)C3)cc2)cc1 [Example 411, 4-Butoxy-N-[4-(3-{[(2S)-2-hydroxy-3-(4-hydroxyphenoxy)propyl]amino}-1-azetidinyl)phenyl]benzenesulfonamide]	0.49
